Where two headings read alike, the source gives them in different places.
How the values were obtained:
[1] = test system: KM12 wild type colon carcinoma cell line harboring the TPM3-NTRK1 fusion protein; assay: NTRK wild type cellular assay (CellTiter-Glo growth inhibition); assay type: cell-based; conditions: 72 hr, CellTiter-Glo, read-out: KM12 (WT) IC50
Procedure: (§1) NTRK Wild Type and G595R Mutant Cellular Assays Protocol
(§2) KM12 wild type colon carcinoma cell line harboring the TPM3-NTRK1 fusion protein was obtained from the National Cancer Institute (NCI). This line has been previously shown to be dependent upon the NTRK activity derived from the NTRK fusion protein for growth and survival. […] Cells were first plated in 384-well plates at 1000 cells/well in complete media (10% FBS and 1% pen/strep) and incubated overnight at 37° C. Cells were then dosed with test articles at varying concentrations using the Bravo liquid handling system. […] Each compound was run in duplicate per plate. […] 72 hr after dosing, assay plates were developed using CellTiter-Glo (Promega) and resultant luminescence was read on the Envision plate reader. IC50 determinations were calculated using a 4-parameter curve fitting algorithm

wild type NTRK1 enzyme = molecular target: T1, wild type NTRK1 enzyme (Homo sapiens, UniProt P04629); assay: NTRK1 Wild Type Assay at 1 mM ATP; assay type: biochemical; conditions: 1 mM ATP; read-out: Enz NTRK1 IC50
T1 construct: purchased BPS Bioscience 40280
Procedure: NTRK1 Wild Type Assay at 1 mM ATP
The reaction was stopped by the addition of 70 μL of Stop buffer (100 mM HEPES pH 7.5, 0.015% Brij 35, 35 mM EDTA and 0.2% of Coating Reagent 3 (Caliper Lifesciences)). The plate was then read on a Caliper EZReader 2 (protocol settings: −1.7 psi, upstream voltage −500, downstream voltage −3000, post sample sip 35s).

[2] = test system: KM12 Cliff (G595R) cell line; assay: NTRK G595R mutant cellular assay (CellTiter-Glo growth inhibition); assay type: cell-based; conditions: 72 hr, CellTiter-Glo
Procedure: as §1, §2

T1 sequence (P04629 440-796 limits assumed): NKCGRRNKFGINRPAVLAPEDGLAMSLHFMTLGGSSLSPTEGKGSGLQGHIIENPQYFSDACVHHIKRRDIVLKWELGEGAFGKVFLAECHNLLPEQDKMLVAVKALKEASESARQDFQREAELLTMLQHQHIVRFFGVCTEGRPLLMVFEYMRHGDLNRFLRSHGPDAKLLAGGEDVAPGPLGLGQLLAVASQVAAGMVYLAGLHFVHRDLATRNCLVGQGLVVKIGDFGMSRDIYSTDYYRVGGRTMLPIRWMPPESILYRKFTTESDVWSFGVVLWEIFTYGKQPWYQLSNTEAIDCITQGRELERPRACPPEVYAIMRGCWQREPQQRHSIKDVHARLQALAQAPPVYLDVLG

Structure (SMILES) | IC50 [1] [µM] | IC50 (wild type NTRK1 enzyme) [µM] | IC50 [2] [µM] | IC50 ([1]; Homo sapiens, KM12, 72 h) [µM] | IC50 ([2]; Homo sapiens, KM12, 72 h) [µM]
O=C(c1n[nH]c2ncnc(NC3CCOCC3O)c12)N1CC(F)CC1c1cc(F)cc(Cl)c1 (stereo not drawn) [Compound 198] | < 0.01 | < 0.01 | < 0.01 |  | 
CN(Cc1cccc(F)c1F)C(=O)c1n[nH]c2ncnc(N[C@@H]3CC[C@@H](O)[C@H]3O)c12 [Compound 139] | 0.01 to 0.1 | 0.01 to 0.1 | 0.01 to 0.1 |  | 
O=C(NCc1cc(F)ccc1F)c1n[nH]c2ncnc(N[C@@H]3CCC[C@H]3O)c12 [Compound 1] |  | 0.01 to 0.1 |  | 0.01 to 0.1 | 0.01 to 0.1
CN(Cc1cc(F)cnc1Cl)C(=O)c1n[nH]c2ncnc(N[C@@H]3CC[C@@H](O)[C@H]3O)c12 [Compound 60] |  | 0.01 to 0.1 |  | 0.01 to 0.1 | 0.01 to 0.1
O=C(NCc1cc(F)ccc1F)c1n[nH]c2ncnc(NC3CC(F)CC3O)c12 (stereo not drawn) [Compound 15] | 0.1 to 1 | 0.1 to 1 | > 1 |  | 
O=C(c1n[nH]c2ncnc(N[C@@H]3CC[C@@H](O)[C@H]3O)c12)N1C[C@@H](F)C[C@@H]1c1ccccc1 [Compound 144] | 0.01 to 0.1 | 0.01 to 0.1 | 0.1 to 1 |  | 
O=C(c1n[nH]c2ncnc(NC3CC(F)CC3O)c12)N1CC(F)CC1c1cc(F)cc(F)c1 (stereo not drawn) [Compound 178] | 0.01 to 0.1 | < 0.01 | 0.01 to 0.1 |  | 
O=C(NCc1cc(F)ccc1F)c1n[nH]c2ncnc(N[C@@H]3COCC[C@H]3O)c12 [Compound 8] |  | 0.01 to 0.1 |  | 0.01 to 0.1 | 0.1 to 1
O=C(c1n[nH]c2ncnc(N[C@@H]3C=C[C@@H](O)[C@H]3O)c12)N1C[C@@H](F)C[C@@H]1c1cc(F)ccc1OC(F)F [Compound 235] | 0.01 to 0.1 | < 0.01 | 0.01 to 0.1 |  | 
CN(Cc1cc(F)cnc1Cl)C(=O)c1n[nH]c2ncnc(N[C@H]3[C@H](O)[C@H](O)[C@@H]4C[C@@H]43)c12 [Compound 159] |  | < 0.01 |  | 0.01 to 0.1 | 0.01 to 0.1
N#Cc1cc(F)cc(C2CC(F)CN2C(=O)c2n[nH]c3ncnc(NC4CCOCC4O)c23)c1 (stereo not drawn) [Compound 181] | 0.01 to 0.1 | < 0.01 | 0.01 to 0.1 |  | 
O=C(NCc1cc(F)ccc1F)c1n[nH]c2ncnc(NC3CC(O)CC3O)c12 (stereo not drawn) [Compound 13] | 0.01 to 0.1 | 0.01 to 0.1 | 0.1 to 1 |  | 
COc1ccc(F)cc1CNC(=O)c1n[nH]c2ncnc(N[C@@H]3CC[C@@H](O)[C@H]3O)c12 [Compound 117] |  | 0.1 to 1 |  | 0.1 to 1 | > 1
O=C(c1n[nH]c2ncnc(N[C@H]3[C@H](O)[C@H](O)[C@@H]4C[C@@H]43)c12)N1C[C@@H](F)C[C@@H]1c1cc(F)cc(F)c1F [Compound 220] | < 0.01 | < 0.01 | < 0.01 |  | 
O=C(c1n[nH]c2ncnc(N[C@@H]3CC[C@@H](O)[C@H]3O)c12)N1C[C@@H](F)C[C@@H]1c1cc(F)ccc1OC(F)(F)F [Compound 240] |  | < 0.01 |  | < 0.01 | < 0.01
O=C(NCc1cc(F)cc(Cl)c1)c1n[nH]c2ncnc(NC3CCC(O)C3O)c12 (stereo not drawn) [Compound 38] | 0.1 to 1 | 0.1 to 1 | 0.1 to 1 |  | 
CN(Cc1cc(F)ccc1OC(F)(F)F)C(=O)c1n[nH]c2ncnc(N[C@@H]3CC[C@@H](O)[C@H]3O)c12 [Compound 110] |  | < 0.01 |  | 0.01 to 0.1 | 0.01 to 0.1
O=C(NCc1cc(F)ccc1OC(F)(F)F)c1n[nH]c2ncnc(N[C@@H]3CC[C@@H](O)[C@H]3O)c12 [Compound 101] |  | 0.1 to 1 |  | 0.1 to 1 | 0.1 to 1
O=C(c1n[nH]c2ncnc(N[C@@H]3CCC[C@@H](O)[C@H]3O)c12)N1C[C@@H](F)C[C@@H]1c1ccccc1 [Compound 155] | 0.01 to 0.1 | 0.01 to 0.1 | 0.01 to 0.1 |  | 
O=C(c1n[nH]c2ncnc(N[C@@H]3C[C@@H](C(F)F)C[C@H]3O)c12)N1C[C@@H](F)C[C@@H]1c1cncc(F)c1 [Compound 203] |  | < 0.01 |  | < 0.01 | < 0.01
O=C(N[C@@H](c1cc(F)ccc1F)C(F)(F)F)c1n[nH]c2ncnc(N[C@@H]3COCC[C@H]3O)c12 [Compound 103] |  | > 1 |  | > 1 | > 1
O=C(c1n[nH]c2ncnc(N[C@@H]3C=C[C@@H](O)[C@H]3O)c12)N1C[C@@H](F)C[C@@H]1c1cc(F)cc(F)c1 [Compound 171] | 0.01 to 0.1 | 0.01 to 0.1 | 0.01 to 0.1 |  | 
O=C(c1n[nH]c2ncnc(N[C@@H]3CCOC[C@H]3O)c12)N1C[C@@H](F)C[C@@H]1c1cc(Cl)ccc1F [Compound 200] |  | < 0.01 |  | 0.01 to 0.1 | 0.01 to 0.1

Structure (SMILES) | IC50 [1] [µM] | IC50 (wild type NTRK1 enzyme) [µM] | IC50 [2] [µM] | IC50 ([1]; Homo sapiens, KM12, 72 h) [µM] | IC50 ([2]; Homo sapiens, KM12, 72 h) [µM]
O=C(c1n[nH]c2ncnc(N[C@@H]3CCOC[C@H]3O)c12)N1C[C@@H](F)C[C@@H]1c1cncc(F)c1 [Compound 73] |  | < 0.01 |  | < 0.01 | 0.01 to 0.1
CN(Cc1cccc(C#N)c1)C(=O)c1n[nH]c2ncnc(N[C@@H]3CC[C@@H](O)[C@H]3O)c12 [Compound 134] | 0.1 to 1 | 0.1 to 1 | 0.1 to 1 |  | 
O=C(NCc1cc(F)cc(F)c1F)c1n[nH]c2ncnc(N[C@@H]3COCC[C@H]3O)c12 [Compound 40] | 0.1 to 1 | 0.01 to 0.1 | 0.1 to 1 |  | 
COc1c(F)cc(F)cc1CNC(=O)c1n[nH]c2ncnc(N[C@@H]3COCC[C@H]3O)c12 [Compound 54] |  | 0.01 to 0.1 |  | 0.1 to 1 | 0.1 to 1
CN(Cc1cc(Cl)ccc1F)C(=O)c1n[nH]c2ncnc(N[C@@H]3COC[C@@H](O)[C@H]3O)c12 [Compound 163] |  | < 0.01 |  | 0.01 to 0.1 | 0.01 to 0.1
O=C(c1n[nH]c2ncnc(N[C@@H]3COCC[C@H]3O)c12)N1C[C@@H](F)C[C@@H]1c1cncc(F)c1 [Compound 74] |  | < 0.01 |  | 0.01 to 0.1 | 0.01 to 0.1
CC(c1cc(F)ccc1F)N(C)C(=O)c1n[nH]c2ncnc(NC3COCC(O)C3O)c12 (stereo not drawn) [Compound 160] | 0.01 to 0.1 | < 0.01 | 0.01 to 0.1 |  | 
CN(Cc1cc(F)ccc1F)C(=O)c1n[nH]c2ncnc(N[C@@H]3COCC[C@H]3O)c12 [Compound 29] |  | < 0.01 |  | 0.01 to 0.1 | 0.01 to 0.1
CN(Cc1cc(F)cc(F)c1F)C(=O)c1n[nH]c2ncnc(N[C@@H]3CC[C@@H](O)[C@H]3O)c12 [Compound 63] |  | < 0.01 |  | 0.01 to 0.1 | 0.01 to 0.1
Cc1ccc(F)cc1CN(C)C(=O)c1n[nH]c2ncnc(NC3CCC(O)C3O)c12 (stereo not drawn) [Compound 23] | 0.01 to 0.1 | < 0.01 | 0.01 to 0.1 |  | 
N#C[C@H]1C[C@@H](O)[C@H](Nc2ncnc3[nH]nc(C(=O)N4C[C@@H](F)C[C@@H]4c4cc(F)cc(Cl)c4)c23)C1 [Compound 211] |  | < 0.01 |  | < 0.01 | < 0.01
O=C(c1n[nH]c2ncnc(N[C@@H]3CCOC[C@H]3O)c12)N1C[C@@H](F)C[C@@H]1c1cccc(F)c1 [Compound 158] |  | < 0.01 |  | 0.01 to 0.1 | 0.01 to 0.1
O=C(c1n[nH]c2ncnc(N[C@@H]3CC[C@@H](O)[C@H]3O)c12)N1C[C@@H](F)C[C@@H]1c1cc(Cl)ccc1F [Compound 201] | < 0.01 | < 0.01 | < 0.01 |  | 
CN(Cc1cc(F)ccc1F)C(=O)c1n[nH]c2ncnc(NC3CCC(O)C3O)c12 (stereo not drawn) [Compound 28] | 0.01 to 0.1 | < 0.01 | 0.01 to 0.1 |  | 
CC(NC(=O)c1n[nH]c2ncnc(NC3CCC(O)C3O)c12)c1cc(F)ccc1F (stereo not drawn) [Compound 35] | 0.1 to 1 | 0.1 to 1 | > 1 |  | 
CN(Cc1cc(F)cc(OC(F)F)c1)C(=O)c1n[nH]c2ncnc(N[C@@H]3CC[C@@H](O)[C@H]3O)c12 [Compound 179] | 0.01 to 0.1 | 0.01 to 0.1 | 0.1 to 1 |  | 
CN(Cc1cccc(F)c1)C(=O)c1n[nH]c2ncnc(N[C@@H]3CC[C@@H](O)[C@H]3O)c12 [Compound 132] |  | 0.01 to 0.1 |  | 0.01 to 0.1 | 0.1 to 1
O=C(c1n[nH]c2ncnc(N[C@@H]3COC[C@@H](O)[C@H]3O)c12)N1C[C@@H](F)C[C@@H]1c1cc(F)cc(F)c1 [Compound 197] |  | < 0.01 |  | 0.01 to 0.1 | 0.01 to 0.1
O=C(c1n[nH]c2ncnc(NC3CCOCC3O)c12)N1CC(F)CC1c1cccc(F)c1F (stereo not drawn) [Compound 175] | 0.01 to 0.1 | < 0.01 | 0.01 to 0.1 |  | 
O=C(c1n[nH]c2ncnc(N[C@@H]3C=C[C@@H](O)[C@H]3O)c12)N1C[C@@H](F)C[C@@H]1c1cccc(F)c1F [Compound 172] | 0.01 to 0.1 | < 0.01 | 0.01 to 0.1 |  | 
O=C(c1n[nH]c2ncnc(NC3CCCC(F)(F)[C@H]3O)c12)N1C[C@@H](F)C[C@@H]1c1cc(F)ccc1F (stereo partly drawn) [Compound 225] | 0.01 to 0.1 | < 0.01 | 0.01 to 0.1 |  | 
CN(Cc1cc(F)cn(C)c1=O)C(=O)c1n[nH]c2ncnc(N[C@@H]3CC[C@@H](O)[C@H]3O)c12 [Compound 147] |  | 0.01 to 0.1 |  | 0.1 to 1 | 0.1 to 1

From patent US11046697B2, “Compounds and compositions useful for treating disorders related to NTRK” (BLUEPRINT MEDICINES CORPORATION, priority 2015, dated 2021)
